Source: paper PMC10525312, “Identification of a Novel Bioactive Peptide Derived from Frozen Chicken Breast Hydrolysate and the Utilization of Hydrolysates as Biopreservatives” (Biology, 2023)

Tests used:
[1] = commercial food antioxidants; cited from earlier work
Text: Free radicals can be produced as a result of lipid oxidation, causing major health issues and having a negative impact on food quality. One of the solutions to prevent lipid oxidation is the use of protein hydrolysates.

ACE = settings: peptides after in vitro gastrointestinal digestion of chicken meat; read-out: ACE inhibitory activity IC50; cited from earlier work
Text: The ACE inhibitory activity of C25 was more po ...

[2] = DPPH antioxidant activity assay (DPPH antioxidant assay kit); type: biochemical; settings: 25 °C for 30 min in the dark, absorbance 450 nm
Description: The antioxidant activity of the chicken hydrolysate and C25 was assessed utilizing a DPPH antioxidant assay kit (Dojindo Laboratories) as described in the instructions provided by the manufacturer and as elaborated by Maky and Zendo [14]. Briefly, 20 µL of the investigated samples was applied to a microtiter plate and 80 µL of assay buffer, 100 µL of ethanol and 100 µL of DPPH working solution were mixed with the samples. Then, the plate was incubated at 25 °C for 30 min in the dark. The absorbance was measured by using a Sunrise microplate absorbance reader (Tecan) at 450 nm.

[3] = system: Enterococcus faecalis JCM 5803^T; experiment: MIC, broth microdilution assay, Enterococcus faecalis; type: cell-based; settings: C25, MRS medium, OD 620 nm, twofold dilutions
Text: (§1) The following indicator bacteria were used to determine the minimum inhibitory concentrations (MICs) as described by Wiegand et al. and Maky and Zendo [14] by using a broth microdilution assay. Weizmannia (Bacillus) coagulans JCM 2257^T, Salmonella enterica serovar Typhimurium NBRC 13243^T, Listeria innocua ATCC 33090^T, Proteus vulgaris F24B [24] and Escherichia coli JM109 were cultivated in Tryptic Soy Broth (BD, Sparks, MD, USA) supplemented with 0.6% yeast extract. Enterococcus faecalis JCM 5803^T was cultivated in MRS medium (Oxoid, Basingstoke, UK), while Pseudomonas putida ATCC 12633^T was cultivated in Luria Bertani medium (BD). Briefly, the bacterial inhibition was assessed at an optical density at 620 nm using an Infinite F200 Pro microplate reader (Tecan, Männedorf, Switzerland) after the indicator strains were cultured with twofold serial dilutions of chicken hydrolysates and C25.

[4] = system: Listeria innocua ATCC 33090^T; experiment: MIC, broth microdilution assay, Listeria innocua; type: cell-based; settings: C25, Tryptic Soy Broth + 0.6% yeast extract, OD 620 nm, twofold dilutions
Text: as §1

[5] = system: Weizmannia coagulans JCM 2257^T; experiment: MIC, broth microdilution assay, Weizmannia coagulans; type: cell-based, Weizmannia (Bacillus) coagulans; settings: C25, Tryptic Soy Broth + 0.6% yeast extract, OD 620 nm, twofold dilutions
Text: as §1

[6] = system: Pseudomonas putida ATCC 12633^T; experiment: MIC, broth microdilution assay, Pseudomonas putida; type: cell-based; settings: C25, Luria Bertani medium, OD 620 nm, twofold dilutions
Text: as §1

[7] = system: Salmonella enterica serovar Typhimurium NBRC 13245^T; experiment: MIC, broth microdilution assay, Salmonella Typhimurium; type: cell-based; settings: C25, Tryptic Soy Broth + 0.6% yeast extract, OD 620 nm, twofold dilutions
Text: as §1

COc1ccc(O)c(C(C)(C)C)c1 [Butylated hydroxyanisole (BHA), Butylated hydroxyanisole]
Antioxidant activity IC50 [1]: 112.05 µg/mL

Cc1cc(C(C)(C)C)c(O)c(C(C)(C)C)c1 [butylated hydroxytoluene (BHT), butylated hydroxytoluene]
Antioxidant activity IC50 [1]: 202.35 µg/mL

ELFTT
IC50 (ACE): 6.35 µM

H-IHAEEILDIRGNPTVEVDLHTAKGH-OH [C25]
Antioxidant activity (in words) [2]: no activity was observed | MIC (class symbol) [3]: NA ^2 (NA ^2 > 24 μg/mL) | MIC (class symbol) [4]: NA ^2 (NA ^2 > 24 μg/mL) | MIC (class symbol) [5]: NA ^2 (NA ^2 > 24 μg/mL) | MIC (class symbol) [6]: NA ^2 (NA ^2 > 24 μg/mL) | MIC (class symbol) [7]: NA ^2 (NA ^2 > 24 μg/mL)

KPLL
IC50 (ACE): 12 µM
